From ChEMBL document CHEMBL1124634, “Synthesis and antirhinovirus activity of 6-(dimethylamino)-2-(trifluoromethyl)-9-(substituted benzyl)-9H-purines” (J Med Chem, 1989)
pIC50: −log10 of the molar value.

What was measured:
Human rhinovirus sp. [1] = assay: Antiviral activity against rhinoviral-1B serotype in a plaque inhibition assay using monolayers of M-HeLa cells; type: functional, organism-based
Human rhinovirus sp. [2] = assay: Percent inhibitory activity at 8 uM against rhinoviral 3 serotype in a plaque inhibition assay using monolayers of M-HeLa cells; type: functional
Human rhinovirus sp. [3] = assay: Antiviral activity against rhinoviral 8 serotype in a plaque inhibition assay using monolayers of M-HeLa cells; type: functional, organism-based
Human rhinovirus sp. [4] = assay: Antiviral activity against rhinoviral 12 serotype in a plaque inhibition assay using monolayers of M-HeLa cells; type: functional, organism-based
Human rhinovirus sp. [5] = assay: Antiviral activity against rhinoviral 15 serotype in a plaque inhibition assay using monolayers of M-HeLa cells; type: functional, organism-based
Human rhinovirus sp. [6] = assay: Antiviral activity against rhinoviral 2 serotype in a plaque inhibition assay using monolayers of M-HeLa cells; type: functional, organism-based
Human rhinovirus sp. [7] = assay: Antiviral activity against rhinoviral-19 serotype in a plaque inhibition assay using monolayers of M-HeLa cells; type: functional, organism-based
Human rhinovirus sp. [8] = assay: Antiviral activity against rhinoviral 30 serotype in a plaque inhibition assay using monolayers of M-HeLa cells; type: functional, organism-based
Human rhinovirus sp. [9] = assay: Antiviral activity against rhinoviral 31 serotype in a plaque inhibition assay using monolayers of M-HeLa cells; type: functional, organism-based
Human rhinovirus sp. [10] = assay: Antiviral activity against rhinoviral-18 serotype in a plaque inhibition assay using monolayers of M-HeLa cells; type: functional, organism-based
Human rhinovirus sp. [11] = assay: Antiviral activity against rhinoviral-1A serotype in a plaque inhibition assay using monolayers of M-HeLa cells; type: functional, organism-based
Human rhinovirus sp. [12] = assay: Antiviral activity against rhinoviral 16 serotype in a plaque inhibition assay using monolayers of M-HeLa cells; type: functional, organism-based
Human rhinovirus sp. [13] = assay: Antiviral activity against rhinoviral 5 serotype in a plaque inhibition assay using monolayers of M-HeLa cells; type: functional, organism-based
Human rhinovirus sp. [14] = assay: Antiviral activity against rhinoviral 29 serotype in a plaque inhibition assay using monolayers of M-HeLa cells; type: functional, organism-based
Human rhinovirus sp. [15] = assay: Antiviral activity against rhinoviral 4 serotype in a plaque inhibition assay using monolayers of M-HeLa cells; type: functional, organism-based
Human rhinovirus sp. [16] = assay: Percent inhibitory activity at 8 uM against rhinoviral 13 serotype in a plaque inhibition assay using monolayers of M-HeLa cells; type: functional
Human rhinovirus sp. [17] = assay: Percent inhibitory activity at 8 uM against rhinoviral 21 serotype in a plaque inhibition assay using monolayers of M-HeLa cells; type: functional
Human rhinovirus sp. [18] = assay: Antiviral activity against rhinoviral 9 serotype in a plaque inhibition assay using monolayers of M-HeLa cells; type: functional, organism-based
Human rhinovirus sp. [19] = assay: Antiviral activity against rhinoviral 14 serotype in a plaque inhibition assay using monolayers of M-HeLa cells; type: functional, organism-based
Human rhinovirus sp. [20] = assay: Percent inhibitory activity at 8 uM against rhinoviral 19s erotype in a plaque inhibition assay using monolayers of M-HeLa cells; type: functional
Human rhinovirus sp. [21] = assay: Antiviral activity against rhinoviral 3 serotype in a plaque inhibition assay using monolayers of M-HeLa cells; type: functional, organism-based
Human rhinovirus sp. [22] = assay: Percent inhibitory activity at 8 uM against rhinoviral 5 serotype in a plaque inhibition assay using monolayers of M-HeLa cells; type: functional
Human rhinovirus sp. [23] = assay: Percent inhibitory activity at 8 uM against rhinoviral 15 serotype in a plaque inhibition assay using monolayers of M-HeLa cells; type: functional
Human rhinovirus sp. [24] = assay: Percent inhibitory activity at 8 uM against rhinoviral 30 serotype in a plaque inhibition assay using monolayers of M-HeLa cells; type: functional
Human rhinovirus sp. [25] = assay: Percent inhibitory activity at 8 uM against rhinoviral 31 serotype in a plaque inhibition assay using monolayers of M-HeLa cells; type: functional
Human rhinovirus sp. [26] = assay: Antiviral activity against rhinoviral 21 serotype in a plaque inhibition assay using monolayers of M-HeLa cells; type: functional, organism-based
Human rhinovirus sp. [27] = assay: Antiviral activity against rhinoviral 18 serotype in a plaque inhibition assay using monolayers of M-HeLa cells; type: functional, organism-based
Human rhinovirus sp. [28] = assay: Percent inhibitory activity at 8 uM against rhinoviral 14 serotype in a plaque inhibition assay using monolayers of M-HeLa cells; type: functional

CN(C)c1nc(C(F)(F)F)nc2c1ncn2Cc1cccc(C(=O)O)c1
pIC50 (Human rhinovirus sp. [1]): 5.34

CN(C)c1nc(C(F)(F)F)nc2c1ncn2Cc1cccc([N+](=O)[O-])c1
pIC50 (Human rhinovirus sp. [1]): 6.89

COc1cc(Cn2cnc3c(N(C)C)nc(C(F)(F)F)nc32)ccc1Cl
pIC50 (Human rhinovirus sp. [1]): 6.17

CCCCc1ccc(Cn2cnc3c(N(C)C)nc(C(F)(F)F)nc32)cc1
pIC50 (Human rhinovirus sp. [1]): 6.11

COc1cccc(Cn2cnc3c(N(C)C)nc(C(F)(F)F)nc32)c1
pIC50 (Human rhinovirus sp. [1]): 7.00

COc1ccccc1Cn1cnc2c(N(C)C)nc(C(F)(F)F)nc21
pIC50 (Human rhinovirus sp. [1]): 5.25

CN(C)c1nc(C(F)(F)F)nc2c1ncn2Cc1ccc(Cl)c(Cl)c1
Inhibition (Human rhinovirus sp. [2]): 40% | pIC50 (Human rhinovirus sp. [3]): 4.96 | pIC50 (Human rhinovirus sp. [4]): 5.29 | pIC50 (Human rhinovirus sp. [5]): 5.43 | pIC50 (Human rhinovirus sp. [1]): 6.92 | pIC50 (Human rhinovirus sp. [6]): 5.21 | pIC50 (Human rhinovirus sp. [7]): 5.27 | pIC50 (Human rhinovirus sp. [8]): 5.12 | pIC50 (Human rhinovirus sp. [9]): 4.89 | pIC50 (Human rhinovirus sp. [10]): 5.09 | pIC50 (Human rhinovirus sp. [11]): 6.14 | pIC50 (Human rhinovirus sp. [12]): 6.13 | pIC50 (Human rhinovirus sp. [13]): < 5.10 | pIC50 (Human rhinovirus sp. [14]): 5.32 | pIC50 (Human rhinovirus sp. [15]): 5.08 | Inhibition (Human rhinovirus sp. [16]): 23% | Inhibition (Human rhinovirus sp. [17]): 29% | pIC50 (Human rhinovirus sp. [18]): 6.15 | pIC50 (Human rhinovirus sp. [19]): 5.00

CN(C)c1cc(Cl)ccc1Cn1cnc2c(N(C)C)nc(C(F)(F)F)nc21
pIC50 (Human rhinovirus sp. [1]): 3.74

CN(C)c1nc(C(F)(F)F)nc2c1ncn2Cc1ccc(Cl)cc1N
pIC50 (Human rhinovirus sp. [1]): 6.33

COc1cc(Cn2cnc3c(N(C)C)nc(C(F)(F)F)nc32)ccc1C
pIC50 (Human rhinovirus sp. [1]): < 6.00

CN(C)c1nc(C(F)(F)F)nc2c1ncn2Cc1ccccc1Cl
pIC50 (Human rhinovirus sp. [3]): 5.10 | pIC50 (Human rhinovirus sp. [4]): 5.09 | Inhibition (Human rhinovirus sp. [20]): 27% | pIC50 (Human rhinovirus sp. [1]): 6.70 | pIC50 (Human rhinovirus sp. [6]): 5.03 | pIC50 (Human rhinovirus sp. [21]): 5.05 | Inhibition (Human rhinovirus sp. [22]): 24% | pIC50 (Human rhinovirus sp. [10]): 4.89 | pIC50 (Human rhinovirus sp. [11]): 5.40 | pIC50 (Human rhinovirus sp. [12]): 5.37 | Inhibition (Human rhinovirus sp. [23]): 30% | pIC50 (Human rhinovirus sp. [14]): 5.38 | pIC50 (Human rhinovirus sp. [15]): 5.00 | Inhibition (Human rhinovirus sp. [16]): 24% | Inhibition (Human rhinovirus sp. [17]): 38% | pIC50 (Human rhinovirus sp. [18]): 5.72 | Inhibition (Human rhinovirus sp. [24]): 31% | Inhibition (Human rhinovirus sp. [25]): 38% | pIC50 (Human rhinovirus sp. [19]): 5.10

CN(C)c1nc(C(F)(F)F)nc2c1ncn2Cc1ccc(Br)cc1
pIC50 (Human rhinovirus sp. [3]): 5.08 | pIC50 (Human rhinovirus sp. [4]): 5.02 | pIC50 (Human rhinovirus sp. [5]): 5.24 | Inhibition (Human rhinovirus sp. [20]): 27% | pIC50 (Human rhinovirus sp. [1]): 7.52 | pIC50 (Human rhinovirus sp. [6]): 5.14 | pIC50 (Human rhinovirus sp. [8]): 5.34 | pIC50 (Human rhinovirus sp. [21]): 5.10 | pIC50 (Human rhinovirus sp. [9]): 5.26 | Inhibition (Human rhinovirus sp. [22]): 37% | pIC50 (Human rhinovirus sp. [11]): 6.12 | pIC50 (Human rhinovirus sp. [12]): 5.92 | pIC50 (Human rhinovirus sp. [14]): 5.49 | pIC50 (Human rhinovirus sp. [15]): 5.12 | pIC50 (Human rhinovirus sp. [26]): 5.30 | Inhibition (Human rhinovirus sp. [16]): 40% | pIC50 (Human rhinovirus sp. [27]): 5.12 | pIC50 (Human rhinovirus sp. [18]): 6.15 | pIC50 (Human rhinovirus sp. [19]): 5.09

CN(C)c1cccc(Cn2cnc3c(N(C)C)nc(C(F)(F)F)nc32)c1
pIC50 (Human rhinovirus sp. [1]): 6.60

CN(C)c1nc(C(F)(F)F)nc2c1ncn2Cc1cccc(Br)c1
pIC50 (Human rhinovirus sp. [1]): 7.22

CN(C)c1nc(C(F)(F)F)nc2c1ncn2Cc1ccc(NC=O)cc1
pIC50 (Human rhinovirus sp. [1]): 6.74

CN(C)c1nc(C(F)(F)F)nc2c1ncn2Cc1ccc(Cl)cc1[N+](=O)[O-]
pIC50 (Human rhinovirus sp. [1]): 6.28

CCOC(=O)c1ccc(Cn2cnc3c(N(C)C)nc(C(F)(F)F)nc32)cc1
pIC50 (Human rhinovirus sp. [1]): 5.30

CN(C)c1nc(C(F)(F)F)nc2c1ncn2Cc1ccc(Cl)cc1NC=O
pIC50 (Human rhinovirus sp. [1]): 5.16

CN(C)c1nc(C(F)(F)F)nc2c1ncn2Cc1ccc(O)cc1
pIC50 (Human rhinovirus sp. [1]): 6.77

CN(C)c1nc(C(F)(F)F)nc2c1ncn2Cc1ccc(OCc2ccccc2)cc1
pIC50 (Human rhinovirus sp. [1]): 5.36

CN(C)c1nc(C(F)(F)F)nc2c1ncn2Cc1ccc(CO)cc1
pIC50 (Human rhinovirus sp. [1]): 6.70

COC(=O)c1cccc(Cn2cnc3c(N(C)C)nc(C(F)(F)F)nc32)c1
pIC50 (Human rhinovirus sp. [1]): 5.59

CN(C)c1nc(C(F)(F)F)nc2c1ncn2Cc1ccccc1[N+](=O)[O-]
pIC50 (Human rhinovirus sp. [1]): 3.55

CN(C)c1nc(C(F)(F)F)nc2c1ncn2Cc1ccc(C(=O)O)cc1
pIC50 (Human rhinovirus sp. [1]): 5.34

CN(C)c1nc(C(F)(F)F)nc2c1ncn2Cc1ccc(N)cc1
pIC50 (Human rhinovirus sp. [1]): 6.89

CN(C)c1cc(Cn2cnc3c(N(C)C)nc(C(F)(F)F)nc32)ccc1Cl
pIC50 (Human rhinovirus sp. [1]): < 6.70

CN(C)c1nc(C(F)(F)F)nc2c1ncn2Cc1ccc(Cl)c([N+](=O)[O-])c1
pIC50 (Human rhinovirus sp. [1]): 5.68

CN(C)c1nc(C(F)(F)F)nc2c1ncn2Cc1ccc(CN)cc1
pIC50 (Human rhinovirus sp. [1]): 6.70

CN(C)c1nc(C(F)(F)F)nc2c1ncn2Cc1cccc(NC=O)c1
pIC50 (Human rhinovirus sp. [1]): 6.13

CN(C)c1nc(C(F)(F)F)nc2c1ncn2Cc1cccc(OCc2ccccc2)c1
pIC50 (Human rhinovirus sp. [1]): 5.96

CN(C)c1nc(C(F)(F)F)nc2c1ncn2Cc1ccc(-c2ccccc2)cc1
pIC50 (Human rhinovirus sp. [1]): 4.85

CC(C)Oc1ccc(Cn2cnc3c(N(C)C)nc(C(F)(F)F)nc32)cc1
pIC50 (Human rhinovirus sp. [3]): 5.00 | pIC50 (Human rhinovirus sp. [4]): 5.00 | Inhibition (Human rhinovirus sp. [20]): 33% | pIC50 (Human rhinovirus sp. [1]): 6.00 | pIC50 (Human rhinovirus sp. [6]): 5.28 | pIC50 (Human rhinovirus sp. [8]): 5.18 | pIC50 (Human rhinovirus sp. [21]): 5.10 | pIC50 (Human rhinovirus sp. [9]): 5.38 | pIC50 (Human rhinovirus sp. [11]): 5.55 | pIC50 (Human rhinovirus sp. [12]): 5.68 | Inhibition (Human rhinovirus sp. [28]): 22% | Inhibition (Human rhinovirus sp. [23]): 40% | pIC50 (Human rhinovirus sp. [13]): 4.96 | pIC50 (Human rhinovirus sp. [14]): 5.60 | pIC50 (Human rhinovirus sp. [15]): 5.43 | Inhibition (Human rhinovirus sp. [16]): 39% | pIC50 (Human rhinovirus sp. [27]): 5.17 | Inhibition (Human rhinovirus sp. [17]): 40% | pIC50 (Human rhinovirus sp. [18]): 5.82

CN(C)c1nc(C(F)(F)F)nc2c1ncn2Cc1ccccc1N
pIC50 (Human rhinovirus sp. [1]): 5.77

CN(C)c1nc(C(F)(F)F)nc2c1ncn2Cc1ccccc1F
pIC50 (Human rhinovirus sp. [1]): 6.82

CC(=O)Nc1ccc(Cn2cnc3c(N(C)C)nc(C(F)(F)F)nc32)cc1
pIC50 (Human rhinovirus sp. [1]): 6.43

Cc1cc(C)cc(Cn2cnc3c(N(C)C)nc(C(F)(F)F)nc32)c1
pIC50 (Human rhinovirus sp. [1]): < 5.89

CCCCOc1ccc(Cn2cnc3c(N(C)C)nc(C(F)(F)F)nc32)cc1
pIC50 (Human rhinovirus sp. [1]): 5.68

COc1cc(C)ccc1Cn1cnc2c(N(C)C)nc(C(F)(F)F)nc21
pIC50 (Human rhinovirus sp. [1]): 4.15

COc1cc(Cl)ccc1Cn1cnc2c(N(C)C)nc(C(F)(F)F)nc21
pIC50 (Human rhinovirus sp. [1]): 3.87

CN(C)c1nc(C(F)(F)F)nc2c1ncn2Cc1cccc(N)c1
pIC50 (Human rhinovirus sp. [1]): 6.52

CN(C)c1nc(C(F)(F)F)nc2c1ncn2Cc1cccc(O)c1
pIC50 (Human rhinovirus sp. [1]): 6.02

CN(C)c1nc(C(F)(F)F)nc2c1ncn2Cc1ccc(C#N)cc1
pIC50 (Human rhinovirus sp. [1]): 6.52
